Data as given in PMC10675174, “Design, Synthesis, and Repurposing of Rosmarinic Acid-β-Amino-α-Ketoamide Hybrids as Antileishmanial Agents” (Pharmaceuticals, 2023).

Columns and labels:
[1] = tested on: promastigotes of L. infantum; conditions: cited from earlier work
[2] = tested on: L. donovani promastigotes; assay: In vitro L. donovani promastigotes growth inhibition (resazurin-based assay); type: cell-based; conditions: Leishmania donovani, 72 h; for inhibition at 25 µM / inhibition at 50 µM: growth of L. donovani promastigotes, incubation 3 days, relative to control; for IC50: incubation for 3 days, from dose-response curves, read-out: IC50 against L. donovani promastigotes
Protocol: Using an in vitro promastigotes-based model, the activity of the synthesized target compounds 2a–i was assessed against the promastigote stage of L. donovani. A double-concentration assay was performed for each compound at 50 and 25 µM concentrations adopting a resazurin-based assay system. Erufosine was used as a positive reference standard drug.
Among the evaluated compounds, seven derivatives maintained a high inhibitory activity at 25 and 50 μM concentrations which was similar to erufosine. Therefore, they were advanced to assessment of potency to evaluate their quality as antileishmanial hit compounds. […] Erufosine was used as positive controls for comparison.
(§1) 2.1. In vitro L. donovani promastigotes-based evaluation model
(§2) 2.1.1. Cell culture of parasite
(§3) L. donovani MHOM/SD/62/1S-CL2D parasites (Department of PIV, Institut Pasteur, Paris,
(§4) France) were cultured as promastigotes at 28 °C in M199 medium (Sigma-Aldrich, St. Louis, MO,
(§5) USA) with 40 mM HEPES, 0.1 mM adenine, 0.0001% biotin, and 4.62 mM NaHCO3
(§6) supplemented with 10% foetal bovine serum (FBS, Gibco, Carlsbad, CA, USA), […]
(§7) penicillin (Gibco), and […] streptomycin (Gibco). Parasites were sub-cultured every 3 or
(§8) 4 days and maintained for 10 passages.
(§9) 2.1.2 Assay of parasite growth inhibition
(§10) The values of growth inhibition of L. donovani promastigotes were determined based on the
(§11) metabolism of resazurin to resorufin by aerobic respiration of metabolically active cells using 384-
(§12) well plates that were seeded with L. donovani promastigotes (5x10^4 cells per well) and incubated
(§13) with tested compounds for 3 days followed by addition of Resazurin sodium salt (200 µM; R7017;
(§14) Sigma-Aldrich, St. Louis, MO, USA) and further incubation for 5 h then the cells were fixed (4%
paraformaldehyde). The plates were analysed using a Victor3TM plate reader (PerkinElmer, Inc.,
Waltham, MA, USA) at 590 nm (emission) and 530 nm (excitation). Miltefosine and erufosine
were used as the reference standards. All measured and calculated values are the averages of
triplicates. The dose-response curves were generated by GraphPad Prism 6 software using a
sigmoidal dose-response equation with a variable hill slope option. […]

[3] = In vitro safety evaluation: cytotoxicity on THP-1 cells; type: cell-based; conditions: human, PMA-treated THP-1 monocytic cells, THP-1 human monocytic cell line
Protocol: As for the considerable toxicities of current antileishmanial therapies, a promising drug candidate should be selective eliciting no potential cytotoxicity towards human cells. […] The newly introduced hit compound needs to be safe and non-toxic to human cells. A comparison with the standard drug erufosine was performed. […] In light of these findings, it might be inferred that both cinnamoyl ketoamide hybrids 2g and 2h could be selective antileishmanial hit compounds for future development.
as §1, §2, §3, §4, §5, §6, §7, §8, §9, §10, §11, §12, §13, §14
paraformaldehyde). The plates were analysed using a Victor3TM plate reader (PerkinElmer, Inc., […]
were used as the reference standards. All measured and calculated values are the averages of […]
The images were acquired based on reading using an Operetta® automated microscope
(PerkinElmer, Inc., Waltham, MA 02451, USA). They were further analysed using ColumbusTM
(PerkinElmer, Inc. Waltham, MA, USA) software to quantify parasite numbers, and host cell
numbers. In brief, large-sized nucleus of host cells was first detected using DAPI signal and the […]

[4] = tested on: promastigotes of L. amazonensis; conditions: read-out: IC50 against promastigotes of L. amazonensis; cited from earlier work

O=C(/C=C/c1ccc(O)c(O)c1)OCCc1ccccc1 [CAPE, caffeic acid phenethyl ester]
IC50 against promastigotes of L. infantum [1]: 51.0 µg/mL

O=C(C=Cc1ccc(O)c(O)c1)NC(Cc1ccccc1)C(=O)C(=O)NCc1ccccc1 (centres unmarked) [Compound 2a]
inhibition at 25 µM [2]: 97.8 ± 1% | inhibition at 50 µM [2]: 103 ± 0.4% | IC50 [2]: > 100 µM

COc1ccc(CCNC(=O)C(=O)C(Cc2ccccc2)NC(=O)C=Cc2ccc(O)c(O)c2)cc1 (centres unmarked) [Compound 2b]
inhibition at 25 µM [2]: 44 ± 1.2% | inhibition at 50 µM [2]: 72.83 ± 0.4%

CCC(=Cc1ccc(O)c(O)c1)C(=O)NC(Cc1ccccc1)C(=O)C(=O)NCc1ccccc1 (centres unmarked) [Compound 2c]
inhibition at 25 µM [2]: 104 ± 0.3% | inhibition at 50 µM [2]: 101 ± 0.2% | IC50 [2]: 87.3 ± 1.2 µM

CCCC(=Cc1ccc(O)c(O)c1)C(=O)NC(Cc1ccccc1)C(=O)C(=O)NCc1ccccc1 (centres unmarked) [Compound 2d]
inhibition at 25 µM [2]: 107 ± 0.4% | inhibition at 50 µM [2]: 102 ± 0.1% | IC50 [2]: 45.2 ± 0.9 µM

CCCC(=Cc1ccc(O)c(O)c1)C(=O)NC(Cc1ccccc1)C(=O)C(=O)NCCc1ccc(OC)cc1 (centres unmarked) [Compound 2e]
inhibition at 25 µM [2]: 104 ± 0.2% | inhibition at 50 µM [2]: 104 ± 0.1% | IC50 [2]: 37.6 ± 2.1 µM

CCCCC(=Cc1ccc(O)c(O)c1)C(=O)NC(Cc1ccccc1)C(=O)C(=O)NCc1ccccc1 (centres unmarked) [Compound 2f]
inhibition at 25 µM [2]: 104 ± 0.4% | inhibition at 50 µM [2]: 100 ± 0.3% | IC50 [2]: 26.9 ± 1.4 µM

CCCCC(=Cc1ccc(O)c(O)c1)C(=O)NC(Cc1ccccc1)C(=O)C(=O)NCCc1ccc(OC)cc1 (centres unmarked) [Compound 2g]
inhibition at 25 µM [2]: 107 ± 0.1% | inhibition at 50 µM [2]: 103 ± 0.1% | IC50 [2]: 9.5 ± 0.6 µM | CC50 at 72 h [3]: > 100 µM

CCCCC(=Cc1ccc(O)c(OC)c1)C(=O)NC(Cc1ccccc1)C(=O)C(=O)NCCc1ccc(OC)cc1 (centres unmarked) [Compound 2h]
inhibition at 25 µM [2]: 103 ± 0.2% | inhibition at 50 µM [2]: 100 ± 0.3% | IC50 [2]: 8.8 ± 0.4 µM | CC50 at 72 h [3]: > 100 µM

CCCCC(=Cc1ccc(OC)c(OC)c1)C(=O)NC(Cc1ccccc1)C(=O)C(=O)NCCc1ccc(OC)cc1 (centres unmarked) [Compound 2i]
inhibition at 25 µM [2]: 79.8 ± 1.8% | inhibition at 50 µM [2]: 94.2 ± 1.2%

CCCCCCCC/C=C\CCCCCCCCCCCCOP(=O)([O-])OCC[N+](C)(C)C [Erufosine, reference compound]
inhibition at 25 µM [2]: 100 ± 1% | inhibition at 50 µM [2]: 107.6 ± 0.3% | IC50 [2]: 9.8 ± 0.7 µM | CC50 at 72 h [3]: 19.4 µM

O=C(/C=C/c1ccc(O)c(O)c1)O[C@H](Cc1ccc(O)c(O)c1)C(=O)O [Rosmarinic acid]
IC50 ([1]; read-out: IC50 against promastigotes of L. infantum): 57.3 µM | IC50 [4]: 61 µM

O=C(/C=C/c1ccc(O)c(O)c1)O[C@@H]1C[C@](O)(C(=O)O)C[C@@H](O)[C@H]1O [chlorogenic, chlorogenic acid]
IC50 [4]: > 500 µM
